According to US12624017B2, “Salt form of isoquinolinone type compound as rock inhibitor and preparation method therefor” (GUANGZHOU OCUSUN OPHTHALMIC BIOTECHNOLOGY CO., LTD., priority 2020, dated 2026):

Test system: New Zealand rabbits with normal intraocular pressure
Assay: Intraocular pressure reduction, normal intraocular pressure, eye drops in both eyes for 14 days (Operation I)
Assay type: in vivo, New Zealand white rabbits
Settings: for Change in intraocular pressure: vs negative control
Text: An intraocular pressure reduction effect and potential ocular toxicity of the compound of formula (I) were inspected with rabbits with normal intraocular pressure by repeated administration of eye drops for 14 days.
Male New Zealand white rabbits, aged 97 to 127 days, weighted 2.6-3.5 kg, purchased from Pizhou Oriental Breeding Co., Ltd.
The Male New Zealand white rabbits were randomly divided into 7 groups according to body weights, 6 rabbits/group. The animals in Groups 1 to 7 were administrated dropwise with a solvent/control/test article in both eyes in an administration volume of 50 μL/eye, once a day for 14 consecutive days, and the day of first administration was recorded as Day 1. The intraocular pressures of the animals were measured before administration, as well as at 1, 2, 4, 6, 8 and 10 h after administration, respectively. On Days 2 to 14, the intraocular pressures of animals in the K-115 administration group were measured at 1 h after daily administration; and intraocular pressures of the animals in the remaining groups were measured at 4 h after daily administration.

[1] = 2.0 mg/mL once a day, Day 2, 4 h after daily administration
[2] = 2.0 mg/mL once a day, Day 3, 4 h after daily administration
[3] = 2.0 mg/mL once a day, Day 4, 4 h after daily administration
[4] = 2.0 mg/mL once a day, Day 5, 4 h after daily administration
[5] = 2.0 mg/mL once a day, Day 6, 4 h after daily administration
[6] = 2.0 mg/mL once a day, Day 7, 4 h after daily administration
[7] = 2.0 mg/mL, Day 1, 1 h after administration
[8] = 2.0 mg/mL, Day 1, 2 h after administration
[9] = 2.0 mg/mL, Day 1, 4 h after administration
[10] = 2.0 mg/mL, Day 1, 6 h after administration
[11] = 2.0 mg/mL, Day 1, 8 h after administration
[12] = 2.0 mg/mL, Day 1, 10 h after administration
[13] = 2.0 mg/mL, Day 1, before administration
[14] = 4.0 mg/mL once a day, Day 2, 4 h after daily administration
[15] = 4.0 mg/mL once a day, Day 3, 4 h after daily administration
[16] = 4.0 mg/mL once a day, Day 4, 4 h after daily administration
[17] = 4.0 mg/mL once a day, Day 5, 4 h after daily administration
[18] = 4.0 mg/mL once a day, Day 6, 4 h after daily administration
[19] = 4.0 mg/mL once a day, Day 7, 4 h after daily administration
[20] = 4.0 mg/mL, Day 1, 1 h after administration
[21] = 4.0 mg/mL, Day 1, 2 h after administration
[22] = 4.0 mg/mL, Day 1, 4 h after administration
[23] = 4.0 mg/mL, Day 1, 6 h after administration
[24] = 4.0 mg/mL, Day 1, 8 h after administration
[25] = 4.0 mg/mL, Day 1, 10 h after administration
[26] = 4.0 mg/mL, Day 1, before administration
[27] = 8.0 mg/mL once a day, Day 2, 4 h after daily administration
[28] = 8.0 mg/mL once a day, Day 3, 4 h after daily administration
[29] = 8.0 mg/mL once a day, Day 4, 4 h after daily administration
[30] = 8.0 mg/mL once a day, Day 5, 4 h after daily administration
[31] = 8.0 mg/mL once a day, Day 6, 4 h after daily administration
[32] = 8.0 mg/mL once a day, Day 7, 4 h after daily administration
[33] = 8.0 mg/mL, Day 1, 1 h after administration
[34] = 8.0 mg/mL, Day 1, 2 h after administration
[35] = 8.0 mg/mL, Day 1, 4 h after administration
[36] = 8.0 mg/mL, Day 1, 6 h after administration
[37] = 8.0 mg/mL, Day 1, 8 h after administration
[38] = 8.0 mg/mL, Day 1, 10 h after administration
[39] = 8.0 mg/mL, Day 1, before administration

Cc1ccc(C(=O)OCn2cc(C)c3c(S(=O)(=O)N4CC[C@H](N)C4)cccc3c2=O)c(C)c1 [Compound of formula (I)]
Change in intraocular pressure (1.0 mg/mL, Day 1, before administration): −0.05 mmHg | Average intraocular pressure in both eyes [1]: 7.03 mmHg | Change in intraocular pressure [1]: 4.05 mmHg | Average intraocular pressure in both eyes [2]: 7.25 mmHg | Change in intraocular pressure [2]: 3.14 mmHg | Average intraocular pressure in both eyes [3]: 6.86 mmHg | Change in intraocular pressure [3]: 3.75 mmHg | Average intraocular pressure in both eyes [4]: 6.47 mmHg | Change in intraocular pressure [4]: 4.5 mmHg | Average intraocular pressure in both eyes [5]: 5.92 mmHg | Change in intraocular pressure [5]: 3.39 mmHg | Average intraocular pressure in both eyes [6]: 5.78 mmHg | Change in intraocular pressure [6]: 4.28 mmHg | Change in intraocular pressure (2.0 mg/mL once a day, Day 8, 4 h after daily administration): 4.53 mmHg | Change in intraocular pressure (2.0 mg/mL once a day, Day 9, 4 h after daily administration): 3.72 mmHg | Change in intraocular pressure (2.0 mg/mL once a day, Day 10, 4 h after daily administration): 3.81 mmHg | Change in intraocular pressure (2.0 mg/mL once a day, Day 11, 4 h after daily administration): 3.66 mmHg | Change in intraocular pressure (2.0 mg/mL once a day, Day 12, 4 h after daily administration): 3.5 mmHg | Change in intraocular pressure (2.0 mg/mL once a day, Day 13, 4 h after daily administration): 4.28 mmHg | Change in intraocular pressure (2.0 mg/mL once a day, Day 14, 4 h after daily administration): 3.91 mmHg | Average intraocular pressure in both eyes [7]: 8.56 mmHg | Change in intraocular pressure [7]: 1.75 mmHg | Average intraocular pressure in both eyes [8]: 7.47 mmHg | Change in intraocular pressure [8]: 3.5 mmHg | Average intraocular pressure in both eyes [9]: 7.47 mmHg | Change in intraocular pressure [9]: 3.84 mmHg | Average intraocular pressure in both eyes [10]: 7.25 mmHg | Change in intraocular pressure [10]: 4.69 mmHg | Average intraocular pressure in both eyes [11]: 8.44 mmHg | Change in intraocular pressure [11]: 4.53 mmHg | Average intraocular pressure in both eyes [12]: 9.67 mmHg | Change in intraocular pressure [12]: 4.75 mmHg | Average intraocular pressure in both eyes [13]: 9.67 mmHg | Change in intraocular pressure [13]: 0.22 mmHg | Average intraocular pressure in both eyes [14]: 6.53 mmHg | Change in intraocular pressure [14]: 4.55 mmHg | Average intraocular pressure in both eyes [15]: 5.58 mmHg | Change in intraocular pressure [15]: 4.81 mmHg | Average intraocular pressure in both eyes [16]: 5.53 mmHg | Change in intraocular pressure [16]: 5.08 mmHg | Average intraocular pressure in both eyes [17]: 6.61 mmHg | Change in intraocular pressure [17]: 4.36 mmHg | Average intraocular pressure in both eyes [18]: 5.47 mmHg | Change in intraocular pressure [18]: 3.84 mmHg | Average intraocular pressure in both eyes [19]: 5.56 mmHg | Change in intraocular pressure [19]: 4.5 mmHg | Change in intraocular pressure (4.0 mg/mL once a day, Day 8, 4 h after daily administration): 4.53 mmHg | Change in intraocular pressure (4.0 mg/mL once a day, Day 9, 4 h after daily administration): 3.97 mmHg | Change in intraocular pressure (4.0 mg/mL once a day, Day 10, 4 h after daily administration): 4.67 mmHg | Change in intraocular pressure (4.0 mg/mL once a day, Day 11, 4 h after daily administration): 3.86 mmHg | Change in intraocular pressure (4.0 mg/mL once a day, Day 12, 4 h after daily administration): 3.64 mmHg | Change in intraocular pressure (4.0 mg/mL once a day, Day 13, 4 h after daily administration): 4.36 mmHg | Change in intraocular pressure (4.0 mg/mL once a day, Day 14, 4 h after daily administration): 4.64 mmHg | Average intraocular pressure in both eyes [20]: 10.44 mmHg | Change in intraocular pressure [20]: −0.13 mmHg | Average intraocular pressure in both eyes [21]: 7.81 mmHg | Change in intraocular pressure [21]: 3.16 mmHg | Average intraocular pressure in both eyes [22]: 6.47 mmHg | Change in intraocular pressure [22]: 4.84 mmHg | Average intraocular pressure in both eyes [23]: 6.22 mmHg | Change in intraocular pressure [23]: 5.72 mmHg | Average intraocular pressure in both eyes [24]: 7.33 mmHg | Change in intraocular pressure [24]: 5.64 mmHg | Average intraocular pressure in both eyes [25]: 8.64 mmHg | Change in intraocular pressure [25]: 5.78 mmHg | Average intraocular pressure in both eyes [26]: 9.67 mmHg | Change in intraocular pressure [26]: 0.22 mmHg | Average intraocular pressure in both eyes [27]: 6.33 mmHg | Change in intraocular pressure [27]: 4.75 mmHg | Average intraocular pressure in both eyes [28]: 5.78 mmHg | Change in intraocular pressure [28]: 4.61 mmHg | Average intraocular pressure in both eyes [29]: 5.97 mmHg | Change in intraocular pressure [29]: 4.64 mmHg | Average intraocular pressure in both eyes [30]: 6.42 mmHg | Change in intraocular pressure [30]: 4.55 mmHg | Average intraocular pressure in both eyes [31]: 5.56 mmHg | Change in intraocular pressure [31]: 3.75 mmHg | Average intraocular pressure in both eyes [32]: 5.28 mmHg | Change in intraocular pressure [32]: 4.78 mmHg | Change in intraocular pressure (8.0 mg/mL once a day, Day 8, 4 h after daily administration): 5.59 mmHg | Change in intraocular pressure (8.0 mg/mL once a day, Day 9, 4 h after daily administration): 4.25 mmHg | Change in intraocular pressure (8.0 mg/mL once a day, Day 10, 4 h after daily administration): 4.19 mmHg | Change in intraocular pressure (8.0 mg/mL once a day, Day 11, 4 h after daily administration): 4.16 mmHg | Change in intraocular pressure (8.0 mg/mL once a day, Day 12, 4 h after daily administration): 3.97 mmHg | Change in intraocular pressure (8.0 mg/mL once a day, Day 13, 4 h after daily administration): 4.72 mmHg | Change in intraocular pressure (8.0 mg/mL once a day, Day 14, 4 h after daily administration): 4.03 mmHg | Average intraocular pressure in both eyes [33]: 7.69 mmHg | Change in intraocular pressure [33]: 2.62 mmHg | Average intraocular pressure in both eyes [34]: 6.39 mmHg | Change in intraocular pressure [34]: 4.58 mmHg | Average intraocular pressure in both eyes [35]: 7.06 mmHg | Change in intraocular pressure [35]: 4.25 mmHg | Average intraocular pressure in both eyes [36]: 7.11 mmHg | Change in intraocular pressure [36]: 4.83 mmHg | Average intraocular pressure in both eyes [37]: 7.22 mmHg | Change in intraocular pressure [37]: 5.75 mmHg | Average intraocular pressure in both eyes [38]: 7.97 mmHg | Change in intraocular pressure [38]: 6.45 mmHg | Average intraocular pressure in both eyes [39]: 10.17 mmHg | Change in intraocular pressure [39]: −0.28 mmHg | Efficacy of single administration (conclusion) (all tested doses (0.5 to 8.0 mg/mL), compared with K-115): better efficacy | Intraocular pressure reduction effect on 14 days of consecutive administration (conclusion) (dose of 0.5 mg/mL, compared with K-115): significant intraocular pressure reduction effect
